In US20230310661A1, “OPHTHALMIC DYE” (Vitreq B.V., priority 2020, published 2023):
Where two headings read alike, the source gives them in different places.

Legend:
ARPE19 cells = assay: Staining of dead cells and/or living cells: dye content in ARPE19 cells by spectrophotometry; format: cell-based, human; details: 15 minutes staining; for Adead (maximum absorbance for dead cells): ARPE19 cells fixed with 70% ethanol 5 minutes; for Aliving (maximum absorbance for living cells): living ARPE19 cells
ARPE-19 cells [1] = assay: Toxicity: survival of cells after exposure to dyes; format: cell-based; details: for Survival of ARPE-19 cells: 0.1% in PBS for 15 minutes at 37° C.
Protocol: A preferred dye, being either a compound according to the invention or an additional dye as defined above, has a good staining ability for dead cells, a minimal cellular toxicity in the dark, and a minimal cellular toxicity in the strong illumination necessary for surgery.
According to a preferred definition, a low toxicity means that at least 60%, 65%, 70%, 75%, 80%, 85%, 90% or 95% cell viability is retained after incubation in PBS for 15 minutes at 37° C. and 5% CO2, as determined using the methodology of Example 6.

[2] = Staining ability on PVDF filter as ILM model; details: for Ability to stain the ILM (comparative statement): PVDF filter as model for the ILM; for Mean intensity of the grey values of stained filter: 30 s contact, scale 255 is white and 0 is black
Description: Correlation between staining of the filter and observed staining of the ILM in patients (data from (Rodrigues, Penha et al. 2010)) show a good correlation (see FIG. 1). A 96-well filter (MSBVN1210 MultiScreen BV Filter Plate, Merck-Millipore, Darmstadt, Germany) was used as ILM model. The filter material is hydrophilic polyvinylidene difluoride (PVDF). A Collagen Cell Carrier membrane (CCC) (Viscofan, Weinheim, Germany) was used as model for the ERM. Punches of the membrane (5 mm diameter) were fixed to the filter with a hypodermic needle and soaked in PBS for 30 minutes. The PBS was removed by vacuum filtration, and 50 μL of the dye solution was pipetted into the filter well. After 30 s, the dye was removed by vacuum filtration, and membrane and filter were washed three times with PBS. The membrane was removed and put into a 96-well plate for spectrum recording, using a Tecan Spark 20M (Tecan Group Ltd., Männedorf, Switzerland) plate reader. The filter staining of the compounds (6) and (8) according to the invention are shown in FIG. 2 in comparison to that of BBG. […] The intensity of the grey values was measured. For BBG the mean intensity was 201, for compound (6) it was 175, for compound (8) it was 197. On the scale used, 255 is white and 0 is black.

ARPE-19 cells [3] = assay: Three-step staining (dye, calcein-AM, propidium iodide) with microphotographs; format: cell-based, human; details: 0.025% in PBS, room temperature, 15 minutes; 20% ethanol 5 minutes to induce death in some cells; FIG. 3
Protocol: An experiment was carried out with ARPE-19 cells and staining with compound (6).
A three-step staining procedure was used: first the dye was introduced, then calcein-acetoxymethyl ester (calcein-AM), then propidium iodide (PI). Calcein-AM (which is non-fluorescent) is able to penetrate cell membranes and is hydrolyzed by intracellular esterases to calcein, which is fluorescent and which cannot escape through the intact cell membrane. Cells fluorescent for calcein-AM are therefore intact and living cells. Dead cells (cells with a compromised cell membrane) might still hydrolyze calcein-AM, but they are not able to retain the calcein. Cells with compromised cell membranes can take up propidium iodide, a dye which intercalates into DNA and turns fluorescent upon binding.
Cells were grown in 48-well plates. Growth medium was removed and a solution of 20% ethanol was added for 5 minutes in order to induce cell death in some cells. The ethanol solutions were removed. Staining with compound (6) (0.025%) in PBS was carried out at room temperature for 15 minutes. The dye was washed off with PBS. The cells were then exposed to calcein-acetoxymethyl ester (calcein-AM) in PBS for 15 minutes at room temperature. […]

[4] = dye 0.1% w/v in PBS, <0.07 = does not stain
[5] = concentration of the dye 0.025%

Compound | Adead (maximum absorbance for dead cells) (ARPE19 cells; dye 0.1% w/v in PBS) | Aliving (maximum absorbance for living cells) (ARPE19 cells; [4]) | other results
CC1=CC(=[N+](C)Cc2cccc(S(=O)(=O)[O-])c2)C=CC1=C(c1ccc(Nc2ccc(OC(C)C)cc2)cc1)c1ccc(N(C)Cc2cccc(S(=O)(=O)O)c2)cc1C [(1)] | 0.3481 | 0.0283 | –
CC1=CC(=[N+](C)Cc2cccc(S(=O)(=O)[O-])c2)C=CC1=C(c1ccc(Nc2ccc(OCc3ccccc3)cc2)cc1)c1ccc(N(C)Cc2cccc(S(=O)(=O)O)c2)cc1C [(2)] | 0.2454 | 0.0253 | –
CCN(Cc1cccc(S(=O)(=O)O)c1)c1ccc(C(=C2C=CC(=[N+](CC)Cc3cccc(S(=O)(=O)[O-])c3)C=C2C)c2ccc(Nc3ccc(OC(C)C)cc3)cc2)c(C)c1 [(3)] | 0.6387 | 0.0440 | –
CCCOc1ccc(Nc2ccc(C(=C3C=CC(=[N+](CC)Cc4cccc(S(=O)(=O)[O-])c4)C=C3C)c3ccc(N(CC)Cc4cccc(S(=O)(=O)O)c4)cc3C)cc2)cc1 [(4)] | 0.8084 | 0.0485 | –
CCN(Cc1cccc(S(=O)(=O)O)c1)c1ccc(C(=C2C=CC(=[N+](CC)Cc3cccc(S(=O)(=O)[O-])c3)C=C2C)c2ccc(Nc3ccc(OCc4ccccc4)cc3)cc2)c(C)c1 [(5)] | 0.6734 | 0.0327 | Survival of ARPE-19 cells (ARPE-19 cells [1]): 81%; Survival (ARPE-19 cells [1]; dye concentration 0.025%): 81%
CCN(Cc1cccc(S(=O)(=O)O)c1)c1ccc(C(=C2C=CC(=[N+](CC)Cc3cccc(S(=O)(=O)[O-])c3)C=C2C)c2ccc(Nc3ccc(Oc4ccccc4)cc3)cc2)c(C)c1 [(7)] | – | – | Adead (maximum absorbance for dead cells) (ARPE19 cells; [5]): 0.1976; Aliving (maximum absorbance for living cells) (ARPE19 cells; [5]): 0.0216; Survival of ARPE-19 cells (ARPE-19 cells [1]): 81%; Survival (ARPE-19 cells [1]; dye concentration 0.025%): 81%
CCN(Cc1cccc(S(=O)(=O)O)c1)c1ccc(C(=C2C=CC(=[N+](CC)Cc3cccc(S(=O)(=O)[O-])c3)C=C2C)c2ccc(Nc3ccc(Nc4ccccc4)cc3)cc2)c(C)c1 [(8)] | 0.8411 | 0.0629 | Survival of ARPE-19 cells (ARPE-19 cells [1]): 79%; Survival (ARPE-19 cells [1]; dye concentration 0.025%): 79%; Ability to stain the ILM (comparative statement) [2]: increased ability to stain the ILM compared to compound (6); Mean intensity of the grey values of stained filter ([2]; dye 0.005%): 197; Filter staining in comparison to BBG and compound (6) ([2]; dye at 0.005%, comparators at 0.025%, FIG. 2): even stronger staining
CCCCN(c1ccc(OCC)cc1)c1ccc(C(=C2C=CC(=[N+](CC)Cc3cccc(S(=O)(=O)[O-])c3)C=C2C)c2ccc(N(CC)Cc3cccc(S(=O)(=O)O)c3)cc2C)cc1 [BBBG] | 0.7941 | 0.1491 | Survival (ARPE-19 cells [1]; dye concentration 0.005%): 67%
CCOc1ccc(Nc2ccc(/C(=C3C=C/C(=[N+](/CC)Cc4cccc(S(=O)(=O)[O-])c4)C=C/3C)c3ccc(N(CC)Cc4cccc(S(=O)(=O)[O-])c4)cc3C)cc2)cc1.[Na+] [BBG, Brilliant Blue G] | 0.5651 | 0.0328 | Survival (ARPE-19 cells [1]): 99%; Mean intensity of the grey values of stained filter ([2]; dye 0.025%): 201
CCN(CC)c1ccc(C(=C2C=CC(=[N+](CC)CC)C=C2)c2ccccc2)cc1 [Brilliant Green] | 0.0568 | 0.1088 | –
O=S1(=O)OC(c2cc(Br)c(O)c(Br)c2)(c2cc(Br)c(O)c(Br)c2)c2ccccc21 [Bromophenol Blue] | 0.0357 | 0.0059 | –
CCN(Cc1cccc(S(=O)(=O)O)c1)c1ccc(C(=C2C=CC(=[N+](CC)Cc3cccc(S(=O)(=O)[O-])c3)C=C2C)c2ccc(Nc3ccc(OC)cc3)cc2)c(C)c1 [Compound (6)] | 0.8755 | 0.0603 | Adead (maximum absorbance for dead cells) (ARPE19 cells; [5]): 0.3630; Aliving (maximum absorbance for living cells) (ARPE19 cells; [5]): 0.0635; Survival of ARPE-19 cells (ARPE-19 cells [1]): 103%; Survival (ARPE-19 cells [1]; dye concentration 0.025%): 103%; Ability to stain the ILM (comparative statement) [2]: increased ability to stain the ILM compared to BBG; Mean intensity of the grey values of stained filter ([2]; dye 0.025%): 175; Filter staining in comparison to BBG ([2]; equal concentrations of 0.025%, FIG. 2): Much stronger staining; Staining of living cells (microscopy) (ARPE-19 cells [3]): does not stain living cells
CN(C)c1ccc(C(=C2C=CC(=[N+](C)C)C=C2)c2ccc(N(C)C)cc2)cc1 [Crystal Violet] | 0.4365 | – | –
CCOc1ccc(N(CC)c2ccc(C(=C3C=CC(=[N+](CC)Cc4cccc(S(=O)(=O)[O-])c4)C=C3C)c3ccc(N(CC)Cc4cccc(S(=O)(=O)O)c4)cc3C)cc2)cc1 [EBBG] | 0.9066 | 0.0724 | Survival (ARPE-19 cells [1]; dye concentration 0.025%): 93%
O=C1OC2(c3ccccc31)c1cc(Br)c(O)c(Br)c1Oc1c2cc(Br)c(O)c1Br [Eosin] | 0.2358 | 0.0362 | –
CC1(C)C(/C=C/C=C/C=C/C=C2\N(CCCCS(=O)(=O)O)c3ccc4ccccc4c3C2(C)C)=[N+](CCCCS(=O)(=O)[O-])c2ccc3ccccc3c21 [ICG, indocyanine green] | 1.1751 | 0.0703 | –
CCN(Cc1cccc(S(=O)(=O)O)c1)c1ccc(C(=C2C=CC(=[N+](CC)Cc3cccc(S(=O)(=O)O)c3)C=C2)c2ccc(S(=O)(=O)O)cc2)cc1.[Na+].[Na+] [Light Green SF] | 0.0080 | 0.0065 | –
CCOc1ccc(N(C)c2ccc(C(=C3C=CC(=[N+](CC)Cc4cccc(S(=O)(=O)[O-])c4)C=C3C)c3ccc(N(CC)Cc4cccc(S(=O)(=O)O)c4)cc3C)cc2)cc1 [MBBG] | 0.6876 | 0.0355 | –
CN(C)c1ccc(C(=C2C=CC(=[N+](C)C)C=C2)c2ccccc2)cc1 [Malachite Green] | 0.0068 | 0.0058 | –
CN(C)c1ccc(C(=C2C=CC(=[N+](C)C)C=C2)c2ccc([N+](C)(C)C)cc2)cc1.[Cl-].[Cl-] [Methyl Green] | 0.0750 | 0.0489 | –
CCCN(c1ccc(OCC)cc1)c1ccc(C(=C2C=CC(=[N+](CC)Cc3cccc(S(=O)(=O)[O-])c3)C=C2C)c2ccc(N(CC)Cc3cccc(S(=O)(=O)O)c3)cc2C)cc1 [PBBG] | 0.7369 | 0.1331 | Survival (ARPE-19 cells [1]; dye concentration 0.005%): 66%
Cc1cc(-c2ccc(/N=N/c3c(S(=O)(=O)O)cc4cc(S(=O)(=O)O)cc(N)c4c3O)c(C)c2)ccc1/N=N/c1c(S(=O)(=O)O)cc2cc(S(=O)(=O)O)cc(N)c2c1O [Trypan Blue] | 0.0847 | 0.0135 | –
Acid Violet | 0.2077 | 0.0184 | –
Aniline Blue | 0.0057 | 0.0080 | –
Methyl Violet | 0.8900 | – | –
Patent Blue 1 | 0.0113 | 0.0155 | –
